From patent publication US20050170966A1, “Surfactants and surfactant compositions” (priority 2002, published 2005)

How the values were obtained:
Assay type in all cases: in vivo
Savoy cabbage [1] = assay: Field trial, lower glyphosate rate, varying adjuvant rate; conditions: Sav C, 14 DAT
Protocol: (§1) In this Example, adjuvants of the invention (SE2), plus TAE1 as control, were tested in field trials in formulations including glyphosate (isopropylamine salt) as a herbicide on flax, pea, Savoy cabbage (Sav C) and Italian ryegrass (It R) as target crops. The application rate was 1080 g(a.e).ha^−1, with adjuvant at an application rate of 405 g.ha^−1 (75% of the normal application rate for adjuvants in such formulations of 540 g.ha^−1). The effectiveness of the formulations was by visual assessment of Growth Reduction (Gr Red) and Chlorosis/Necrosis (Chlor) 6 DAT with the values being reported in % (related to an untreated control=0% effect). Further field trial runs were carried out similar to Example AE4 on pea and Savoy cabbage as target crops at a lower application rate of glyphosate (570 g(a.e.).ha^−1) and using varying application rates for the adjuvant (135, 270 and 405 g.ha^−1) with the formulation components being mixed in the spray tank.

pea [2] = assay: as above; conditions: 14 DAT
Protocol: as §1

flax = assay: Field trial of glyphosate formulations with adjuvant; conditions: 6 DAT, glyphosate 1080 g(a.e).ha^-1, adjuvant 405 g.ha^-1
Protocol: as §1, with “effect).” for “effect). Further field trial runs were carried out similar to Example AE4 on pea and Savoy cabbage as target crops at a lower application rate of glyphosate (570 g(a.e.).ha^−1) and using varying application rates for the adjuvant (135, 270 and 405 g.ha^−1) with the formulation components being mixed in the spray tank.”

Savoy cabbage [3] = assay: as above; conditions: Sav C; 6 DAT; glyphosate 1080 g(a.e).ha^-1, adjuvant 405 g.ha^-1
Protocol: as §1, with “effect).” for “effect). Further field trial runs were carried out similar to Example AE4 on pea and Savoy cabbage as target crops at a lower application rate of glyphosate (570 g(a.e.).ha^−1) and using varying application rates for the adjuvant (135, 270 and 405 g.ha^−1) with the formulation components being mixed in the spray tank.”

Italian ryegrass = assay: as above; conditions: It R; 6 DAT; glyphosate 1080 g(a.e).ha^-1, adjuvant 405 g.ha^-1
Protocol: as §1, with “effect).” for “effect). Further field trial runs were carried out similar to Example AE4 on pea and Savoy cabbage as target crops at a lower application rate of glyphosate (570 g(a.e.).ha^−1) and using varying application rates for the adjuvant (135, 270 and 405 g.ha^−1) with the formulation components being mixed in the spray tank.”

pea [4] = assay: as above; conditions: 6 DAT, glyphosate 1080 g(a.e).ha^-1, adjuvant 405 g.ha^-1
Protocol: as §1, with “effect).” for “effect). Further field trial runs were carried out similar to Example AE4 on pea and Savoy cabbage as target crops at a lower application rate of glyphosate (570 g(a.e.).ha^−1) and using varying application rates for the adjuvant (135, 270 and 405 g.ha^−1) with the formulation components being mixed in the spray tank.”

[5] = glyphosate 570 g(a.e.).ha^-1, adjuvant 135 g/ha
[6] = glyphosate 570 g(a.e.).ha^-1, adjuvant 270 g/ha
[7] = glyphosate 570 g(a.e.).ha^-1, adjuvant 405 g/ha

1-[Bis-(2-hydroxyethyl)-amino]-2-hydroxypropane-3-(Alc1 15-ethoxylate) [SE2]
% necrosis (Savoy cabbage [1]; [5]): 40%
% necrosis (Savoy cabbage [1]; [6]): 40%
% necrosis (Savoy cabbage [1]; [7]): 60%
% necrosis (pea [2]; [5]): 70%
% necrosis (pea [2]; [6]): 90%
% necrosis (pea [2]; [7]): 95%
Chlor (%) Chlorosis/Necrosis (flax): 50%
Gr Red (%) Growth Reduction (flax): 30%
Chlor (%) Chlorosis/Necrosis (Savoy cabbage [3]): 40%
Chlor (%) Chlorosis/Necrosis (Italian ryegrass): 50%
Chlor (%) Chlorosis/Necrosis (pea [4]): 80%
Gr Red (%) Growth Reduction (pea [4]): 55%
